Assay results published in ChEMBL document CHEMBL4330130, “Synthesis of amide and sulfonamide substituted N-aryl 6-aminoquinoxalines as PFKFB3 inhibitors with improved physicochemical properties” (Bioorg Med Chem Lett, 2019).
Converted amounts (≈) assume the structure as drawn.

Assay: Kinetic solubility of the compound in pH 8 Tris buffer at 500 uM after 90 by UV-Vis absorbance analysis
Assay type: physicochemical
Conditions: read-out: Kinetic_solubility

solubility kinetic at 500 µM | Compound
170 µg/mL (≈ 367 µM) | CN1CC(NC(=O)c2ccncc2Nc2cc(-c3ccc4ccn(C)c4c3)c3nccnc3c2)C1
40 µg/mL (≈ 101 µM) | Cn1ccc2ccc(-c3cc(Nc4cnccc4C(N)=O)cc4nccnc34)cc21
239 µg/mL (≈ 484 µM) | Cn1ccc2ccc(-c3cc(Nc4cnccc4C(=O)NCC4COCCN4)cc4nccnc34)cc21 (stereo not given)
254 µg/mL (≈ 500 µM) | Cn1ccc2ccc(-c3cc(Nc4ccccc4S(=O)(=O)Nc4cncnc4)cc4nccnc34)cc21
2 µg/mL (≈ 4.67 µM) | Cn1ccc2ccc(-c3cc(Nc4ccccc4S(C)(=O)=O)cc4nccnc34)cc21
2 µg/mL (≈ 4.37 µM) | CN(C)S(=O)(=O)c1ccccc1Nc1cc(-c2ccc3ccn(C)c3c2)c2nccnc2c1
268 µg/mL (≈ 500 µM) | CC(=O)N1CCOC(CNC(=O)c2ccncc2Nc2cc(-c3ccc4ccn(C)c4c3)c3nccnc3c2)C1 (stereo not given)
175 µg/mL (≈ 414 µM) | CN(C)C(=O)c1ccncc1Nc1cc(-c2ccc3ccn(C)c3c2)c2nccnc2c1
2 µg/mL (≈ 4.51 µM) | CNS(=O)(=O)c1ccccc1Nc1cc(-c2ccc3ccn(C)c3c2)c2nccnc2c1
229 µg/mL (≈ 480 µM) | CN1CCC(NC(=O)c2ccncc2Nc2cc(-c3ccc4ccn(C)c4c3)c3nccnc3c2)C1 (stereo not given)
26 µg/mL (≈ 50.7 µM) | CN1CCC(NS(=O)(=O)c2ccccc2Nc2cc(-c3ccc4ccn(C)c4c3)c3nccnc3c2)C1 (stereo not given)
246 µg/mL (≈ 500 µM) | CN1CCCC(NC(=O)c2ccncc2Nc2cc(-c3ccc4ccn(C)c4c3)c3nccnc3c2)C1 (stereo not given)
9 µg/mL (≈ 17.1 µM) | CN1CCCC(NS(=O)(=O)c2ccccc2Nc2cc(-c3ccc4ccn(C)c4c3)c3nccnc3c2)C1 (stereo not given)
213 µg/mL (≈ 410 µM) | CC(=O)N1CCC(NC(=O)c2ccncc2Nc2cc(-c3ccc4ccn(C)c4c3)c3nccnc3c2)CC1
127 µg/mL (≈ 260 µM) | Cn1cc(CNC(=O)c2ccncc2Nc2cc(-c3ccc4ccn(C)c4c3)c3nccnc3c2)cn1
48 µg/mL (≈ 94.9 µM) | CN1CCC(NC(=O)c2ccncc2Nc2cc(-c3ccc4ccn(C)c4c3)c3nccnc3c2)CC1=O (stereo not given)
35 µg/mL (≈ 66.5 µM) | CN1CCC(CNS(=O)(=O)c2ccccc2Nc2cc(-c3ccc4ccn(C)c4c3)c3nccnc3c2)C1 (stereo not given)
79 µg/mL (≈ 160 µM) | Cc1csc2ccc(-c3cc(Nc4cnccc4C(=O)N[C@@H]4CCN(C)C4)cc4nccnc34)cc12
242 µg/mL (≈ 492 µM) | Cn1ccc2ccc(-c3cc(Nc4cnccc4C(=O)NC4CCNC(=O)C4)cc4nccnc34)cc21 (stereo not given)
246 µg/mL (≈ 500 µM) | CN1CCC(NC(=O)c2ccncc2Nc2cc(-c3ccc4ccn(C)c4c3)c3nccnc3c2)CC1

solubility kinetic at 500 µM | Compound
4 µg/mL (≈ 8.47 µM) | Cn1ccc2ccc(-c3cc(Nc4cnccc4C(=O)Nc4cncnc4)cc4nccnc34)cc21
245 µg/mL (≈ 498 µM) | CN1CCC(N(C)C(=O)c2ccncc2Nc2cc(-c3ccc4ccn(C)c4c3)c3nccnc3c2)C1 (stereo not given)
253 µg/mL (≈ 500 µM) | CN1CC(NC(=O)c2ccncc2Nc2cc(-c3ccc4ccn(C)c4c3)c3nccnc3c2)CCC1=O (stereo not given)
80 µg/mL (≈ 162 µM) | Cc1csc2ccc(-c3cc(Nc4cnccc4C(=O)N[C@H]4CCN(C)C4)cc4nccnc34)cc12
3 µg/mL (≈ 5.6 µM) | CN(Cc1cncnc1)S(=O)(=O)c1ccccc1Nc1cc(-c2ccc3ccn(C)c3c2)c2nccnc2c1
246 µg/mL (≈ 500 µM) | CN1CCC(CNC(=O)c2ccncc2Nc2cc(-c3ccc4ccn(C)c4c3)c3nccnc3c2)C1 (stereo not given)
252 µg/mL (≈ 498 µM) | CC(=O)N1CC(CNC(=O)c2ccncc2Nc2cc(-c3ccc4ccn(C)c4c3)c3nccnc3c2)C1
2 µg/mL (≈ 4.21 µM) | Cn1cc(NC(=O)c2ccncc2Nc2cc(-c3ccc4ccn(C)c4c3)c3nccnc3c2)cn1
5 µg/mL (≈ 10 µM) | Cn1ccc2ccc(-c3cc(Nc4ccccc4S(=O)(=O)N4CCOCC4)cc4nccnc34)cc21
3 µg/mL (≈ 5.75 µM) | Cn1ccc2ccc(-c3cc(Nc4ccccc4S(=O)(=O)NCc4cncnc4)cc4nccnc34)cc21
185 µg/mL (≈ 373 µM) | CN1CCC(NC(=O)c2ccncc2Nc2cc(-c3cc(F)c4ccn(C)c4c3)c3nccnc3c2)C1 (stereo not given)
233 µg/mL (≈ 479 µM) | Cn1ccc2ccc(-c3cc(Nc4cnccc4C(=O)NCc4cncnc4)cc4nccnc34)cc21
2 µg/mL (≈ 3.79 µM) | Cn1ccc2ccc(-c3cc(Nc4ccccc4S(=O)(=O)NCC4CCOCC4)cc4nccnc34)cc21
253 µg/mL (≈ 500 µM) | CC(=O)N1CCC(NC(=O)c2ccncc2Nc2cc(-c3ccc4ccn(C)c4c3)c3nccnc3c2)C1 (stereo not given)
212 µg/mL (≈ 408 µM) | CC(=O)N1CCCC(NC(=O)c2ccncc2Nc2cc(-c3ccc4ccn(C)c4c3)c3nccnc3c2)C1 (stereo not given)
2 µg/mL (≈ 3.82 µM) | Cn1cc(CNS(=O)(=O)c2ccccc2Nc2cc(-c3ccc4ccn(C)c4c3)c3nccnc3c2)cn1
244 µg/mL (≈ 496 µM) | CC(=O)N1CC(NC(=O)c2ccncc2Nc2cc(-c3ccc4ccn(C)c4c3)c3nccnc3c2)C1
6 µg/mL (≈ 14 µM) | Cn1ccc2ccc(-c3cc(Nc4ccccc4S(N)(=O)=O)cc4nccnc34)cc21
4 µg/mL (≈ 9.79 µM) | CNC(=O)c1ccncc1Nc1cc(-c2ccc3ccn(C)c3c2)c2nccnc2c1
241 µg/mL (≈ 485 µM) | CN1CCC(NC(=O)c2ccncc2Nc2cc(-c3ccc4sc(N)nc4c3)c3nccnc3c2)C1 (stereo not given)
